Holding throughout (assay type): cell-based
The test system of experiment [1] is Byssochlamys fulva DSM 1808. Description: Antimicrobial activity (MIC), Byssochlamys fulva DSM 1808. The note with it: Paecilomyces fulvus, DSM1808, potato dextrose broth pH 3.8, visual evaluation, read-out: Minimal Inhibitory Concentration (MIC).
Experiment [2] concerns Dekkera naardenensis CBS 6115. The experiment can be described thus: Antimicrobial activity (MIC), Dekkera naardenensis CBS 6115. To be noted: Brettanomyces naardenensis, CBS6115, potato dextrose broth pH 3.8, visual evaluation, read-out: Minimal Inhibitory Concentration (MIC).
For experiment [3], the system named is Candida parapsilosis SUN05. The experiment can be described thus: Antimicrobial activity (MIC), Candida parapsilosis SUN05. To be noted: Lodderomyces parapsilosis, potato dextrose broth pH 3.8, visual evaluation, read-out: Minimal Inhibitory Concentration (MIC).
Experiment [4] relates to Lactobacillus paracasei ssp. paracasei DSM 46331. Description: Antimicrobial activity (MIC), Lactobacillus paracasei ssp. paracasei DSM 46331. The note with it: Lacticaseibacillus paracasei, DSM46331, potato dextrose broth pH 3.8, visual evaluation, read-out: Minimal Inhibitory Concentration (MIC).
Experiment [5] concerns Candida albicans ATCC10231. Description: Antimicrobial activity (MIC), Candida albicans ATCC10231. The note with it: potato dextrose broth pH 3.8, visual evaluation, read-out: Minimal Inhibitory Concentration (MIC).
Experiment [6] relates to Brettanomyces sp SUN08. The experiment can be described thus: Antimicrobial activity (MIC), Brettanomyces sp SUN08. The note with it: potato dextrose broth pH 3.8, visual evaluation, read-out: Minimal Inhibitory Concentration (MIC).
Experiment [7] deals with Yarrowia lipolytica DSM 70561. Description: Antimicrobial activity (MIC), Yarrowia lipolytica DSM 70561. The note with it: DSM70561, potato dextrose broth pH 3.8, visual evaluation, read-out: Minimal Inhibitory Concentration (MIC).
Experiment [8] has as its system Saccharomyces cerevisiae SUN01. The experiment can be described thus: Antimicrobial activity (MIC), Saccharomyces cerevisiae SUN01. The note with it: potato dextrose broth pH 3.8, visual evaluation, read-out: Minimal Inhibitory Concentration (MIC).
Experiment [9] relates to Penicillium expansum DSM 62841. Description: Antimicrobial activity (MIC), Penicillium expansum DSM 62841. To be noted: DSM62841, potato dextrose broth pH 3.8, visual evaluation, read-out: Minimal Inhibitory Concentration (MIC).
Experiment [10] deals with Alicyclobacillus acidoterrestris DSM 2498. Description: Antimicrobial activity (MIC), Alicyclobacillus acidoterrestris DSM 2498. The note with it: DSM2498, potato dextrose broth pH 3.8, visual evaluation, read-out: Minimal Inhibitory Concentration (MIC).
The test system of experiment [11] is Zygosaccharomyces bailii DSM 70834. The experiment can be described thus: Antimicrobial activity (MIC), Zygosaccharomyces bailii DSM 70834. To be noted: DSM70834, potato dextrose broth pH 3.8, visual evaluation, read-out: Minimal Inhibitory Concentration (MIC).
Experiment [12] deals with Bacillus subtilis ATCC 6633. Description: Antimicrobial activity (MIC), Bacillus subtilis ATCC 6633. The note with it: ATCC6633, potato dextrose broth pH 3.8, visual evaluation, read-out: Minimal Inhibitory Concentration (MIC).
Experiment [13] relates to Clostridium sporogenes ATCC19404. Description: Antimicrobial activity (MIC), Clostridium sporogenes ATCC19404. The note with it: potato dextrose broth pH 3.8, visual evaluation, read-out: Minimal Inhibitory Concentration (MIC). On the procedure:
Compounds are dissolved at a concentration of 20 mg/mL using 100% DMSO. • Preculture: yeast and bacteria are plated on potato dextrose agar, resuspended in potato dextrose broth and CFU via OD measurement determined; adjusting CFU of the strain in PDB pH 3.8 • Preculture: for mycel forming fungi spores were directly used after thawing of cryopreserved stocks of known titre • Final titre used for the assay: Yeast strains 5*10^3 CFU/ml, Bacteria 1*10^6 CFU/ml, Fungi (spores) 5*10^4 CFU/ml • Potato dextrose broth pH 3.8 was used as assay matrix • 500 ppm (0.05%) of the compounds were screened (final DMSO 2.5% (v/v)) • Volume: 100 μl in 96-well format • Positive controls: potassium sorbate, sodium benzoate & triclosan • 28° C. to 30° C., static incubation • Incubation time depending on spoilage organism between 2 and 8 days • Visual evaluation (per eye, for fungi with binocular magnification)

For experiment [14], the system named is Corynebacterium xerosis DSM 20743. The experiment can be described thus: Antimicrobial activity (MIC), Corynebacterium xerosis DSM 20743. The note with it: DSM20743, potato dextrose broth pH 3.8, visual evaluation, read-out: Minimal Inhibitory Concentration (MIC).
Experiment [15] has as its system Saccharomyces cerevisiae DSM 2548. Description: Antimicrobial activity (MIC), Saccharomyces cerevisiae DSM 2548. To be noted: DSM2548, potato dextrose broth pH 3.8, visual evaluation, read-out: Minimal Inhibitory Concentration (MIC).
The subject of experiment [16] is Zygosaccharomyces bailli SUN07. Description: Antimicrobial activity (MIC), Zygosaccharomyces bailli SUN07. The note with it: potato dextrose broth pH 3.8, visual evaluation, read-out: Minimal Inhibitory Concentration (MIC).
Experiment [17] concerns Saccharomyces cerevisiae SUN06. Description: Antimicrobial activity (MIC), Saccharomyces cerevisiae SUN06. To be noted: potato dextrose broth pH 3.8, visual evaluation, read-out: Minimal Inhibitory Concentration (MIC).
The test system of experiment [18] is Leuconostoc lactis DSM 20202. Description: Antimicrobial activity (MIC), Leuconostoc lactis DSM 20202. To be noted: DSM20202, potato dextrose broth pH 3.8, visual evaluation, read-out: Minimal Inhibitory Concentration (MIC).
In experiment [19] the test system is Malassezia furfur DSM 6170. The experiment can be described thus: Antimicrobial activity (MIC), Malassezia furfur DSM 6170. To be noted: DSM6170, potato dextrose broth pH 3.8, visual evaluation, read-out: Minimal Inhibitory Concentration (MIC).
Experiment [20] concerns Enterococcus faecalis ATCC 7080. Description: Antimicrobial activity (MIC), Enterococcus faecalis ATCC 7080. The note with it: ATCC7080, potato dextrose broth pH 3.8, visual evaluation, read-out: Minimal Inhibitory Concentration (MIC).
Experiment [21] has as its system Leuconostoc mesenteroides DSM 20343. Description: Antimicrobial activity (MIC), Leuconostoc mesenteroides DSM 20343. The note with it: DSM20343, potato dextrose broth pH 3.8, visual evaluation, read-out: Minimal Inhibitory Concentration (MIC).
The subject of experiment [22] is Neosartorya fischeri SUN09. The experiment can be described thus: Antimicrobial activity (MIC), Neosartorya fischeri SUN09. The note with it: Aspergillus fischeri, potato dextrose broth pH 3.8, visual evaluation, read-out: Minimal Inhibitory Concentration (MIC).
The test system of experiment [23] is Zygosaccharomyces rouxii DSM 7525. The experiment can be described thus: Antimicrobial activity (MIC), Zygosaccharomyces rouxii DSM 7525. To be noted: DSM7525, potato dextrose broth pH 3.8, visual evaluation, read-out: Minimal Inhibitory Concentration (MIC).
The test system of experiment [24] is Zygosaccharomyces bailli SUN02. The experiment can be described thus: Antimicrobial activity (MIC), Zygosaccharomyces bailli SUN02. The note with it: potato dextrose broth pH 3.8, visual evaluation, read-out: Minimal Inhibitory Concentration (MIC).
The subject of experiment [25] is Penicillium paneum SUN04. Description: Antimicrobial activity (MIC), Penicillium paneum SUN04. The note with it: potato dextrose broth pH 3.8, visual evaluation, read-out: Minimal Inhibitory Concentration (MIC).
For experiment [26], the system named is Byssochlamys nivea SUN10. Description: Antimicrobial activity (MIC), Byssochlamys nivea SUN10. The note with it: Paecilomyces niveus, potato dextrose broth pH 3.8, visual evaluation, read-out: Minimal Inhibitory Concentration (MIC).
The subject of experiment [27] is Asaia siamensis SUN03. Description: Antimicrobial activity (MIC), Asaia siamensis SUN03. To be noted: potato dextrose broth pH 3.8, visual evaluation; for MIC: read-out: Minimal Inhibitory Concentration (MIC).
In experiment [28] the test system is Gluconacetobacter liquefaciens DSM 5603. Description: Antimicrobial activity (MIC), Gluconacetobacter liquefaciens DSM 5603. To be noted: DSM5603, potato dextrose broth pH 3.8, visual evaluation, read-out: Minimal Inhibitory Concentration (MIC).
Experiment [29] has as its system Bacillus licheniformis DSM 13. The experiment can be described thus: Antimicrobial activity (MIC), Bacillus licheniformis DSM 13. To be noted: DSM13, potato dextrose broth pH 3.8, visual evaluation, read-out: Minimal Inhibitory Concentration (MIC).
The subject of experiment [30] is Aspergillus brasiliensis DSM 1988. The experiment can be described thus: Antimicrobial activity (MIC), Aspergillus brasiliensis DSM 1988. To be noted: DSM1988, potato dextrose broth pH 3.8, visual evaluation, read-out: Minimal Inhibitory Concentration (MIC).
For experiment [31], the system named is Candida parapsilosis ATCC 20384. Description: Antimicrobial activity (MIC), Candida parapsilosis ATCC 20384. The note with it: Lodderomyces parapsilosis, ATCC20384, potato dextrose broth pH 3.8, visual evaluation, read-out: Minimal Inhibitory Concentration (MIC).
Experiment [32] deals with Clostridium perfringens DSM756. Description: microbe, parasite or virus in culture. To be noted: DSM756, pH 3.8, read-out: Minimal Inhibitory Concentration (MIC).

Each structure is given as a SMILES string. ≈ marks a conversion by molar mass, not a printed value. Where only a bound is given, the exact number is not on record here.

`CCCC(O)CC(=O)O[C@H]1[C@H](O[C@H]2[C@H](O)[C@@H](O)[C@H](OCC(O)CCCCCCCCCCCCC(O)C(=O)O)O[C@@H]2COC(C)=O)O[C@H](CO)[C@@H](O)[C@@H]1O` (stereo partly shown) [NP-018217]: the MIC is 80 µg/mL (≈ 102 µM) in experiment [1]; 240 µg/mL (≈ 306 µM) in experiment [2]; no more than 125 µg/mL in experiment [3]; 80 µg/mL (≈ 102 µM) in [4]; 80 µg/mL (≈ 102 µM) in experiment [5]; no more than 125 µg/mL in [6]. In addition, the MIC in [7] was 240 µg/mL (≈ 306 µM); in experiment [8], no more than 125 µg/mL; in [9] it was 240 µg/mL (≈ 306 µM); in experiment [10], 240 µg/mL (≈ 306 µM); in experiment [11], 80 µg/mL (≈ 102 µM); in [12], 600 µg/mL (≈ 764 µM). The MIC in experiment [13] was 80 µg/mL (≈ 102 µM); in [14] it was 240 µg/mL (≈ 306 µM); in [15], 240 µg/mL (≈ 306 µM); in [16], 500 µg/mL (≈ 637 µM); in experiment [17], no more than 125 µg/mL; in [18], 250 µg/mL (≈ 319 µM). For the same compound, the MIC in experiment [19] was 80 µg/mL (≈ 102 µM); in experiment [20] it was 240 µg/mL (≈ 306 µM); in experiment [21], 240 µg/mL (≈ 306 µM); in experiment [22] it was no more than 31.2 µg/mL; in experiment [23] it was 240 µg/mL (≈ 306 µM); in experiment [24], no more than 125 µg/mL. For the same compound, the MIC in [25] was no more than 31.2 µg/mL; in [26], no more than 31.2 µg/mL; in [27] it was 500 µg/mL (≈ 637 µM).
For `O=C(O)CCCCCCCCCCCCCC(O)CO[C@@H]1O[C@H](COC(=O)O)[C@@H](O[C@@H]2O[C@H](CO)[C@@H](O)[C@H](O)[C@H]2OC(=O)CC(O)CCO)[C@H](O)[C@H]1O` (stereo partly shown) [NP-018250], the MIC in experiment [3] is 125 µg/mL (≈ 162 µM); in experiment [28], 250 µg/mL (≈ 323 µM); in experiment [6], 125 µg/mL (≈ 162 µM); in experiment [8], 125 µg/mL (≈ 162 µM); in experiment [12], 250 µg/mL (≈ 323 µM); in [13], 250 µg/mL (≈ 323 µM). Moreover, the MIC in [16] stood at 125 µg/mL (≈ 162 µM); in experiment [17], 125 µg/mL (≈ 162 µM); in experiment [18] it was 250 µg/mL (≈ 323 µM); in experiment [20] it was 250 µg/mL (≈ 323 µM); in experiment [22], 125 µg/mL (≈ 162 µM); in experiment [24] it was 125 µg/mL (≈ 162 µM). In addition, the MIC is 125 µg/mL (≈ 162 µM) in [25], 125 µg/mL (≈ 162 µM) in experiment [26] and no more than 125 µg/mL in experiment [27].
Take `CCCCCC(O)CC(=O)O[C@H]1[C@H](O[C@H]2[C@H](O)[C@@H](O)[C@H](OCC(O)CCCCCCCCCCCCC(O)C(=O)O)O[C@@H]2COC(C)=O)O[C@H](CO)[C@@H](O)[C@@H]1O` (stereo partly shown) [NP-018256]: the MIC in experiment [2] was 80 µg/mL (≈ 98.4 µM); in experiment [3] it was no more than 125 µg/mL; in experiment [4], 240 µg/mL (≈ 295 µM); in experiment [5], 80 µg/mL (≈ 98.4 µM); in experiment [29], 240 µg/mL (≈ 295 µM); in experiment [6], no more than 125 µg/mL. Moreover, the MIC was 240 µg/mL (≈ 295 µM) in [7]; no more than 125 µg/mL in [8]; 240 µg/mL (≈ 295 µM) in experiment [30]; 240 µg/mL (≈ 295 µM) in experiment [9]; 240 µg/mL (≈ 295 µM) in [10]; 80 µg/mL (≈ 98.4 µM) in experiment [11]. In addition, the MIC is 240 µg/mL (≈ 295 µM) in experiment [31]; 80 µg/mL (≈ 98.4 µM) in [13]; 1200 µg/mL (≈ 1480 µM) in experiment [14]; 240 µg/mL (≈ 295 µM) in experiment [15]; 500 µg/mL (≈ 615 µM) in [16]; no more than 125 µg/mL in [17]. In addition, the MIC in [18] is 240 µg/mL (≈ 295 µM); in [19], 80 µg/mL (≈ 98.4 µM); in [32], 80 µg/mL (≈ 98.4 µM); in experiment [21], 240 µg/mL (≈ 295 µM); in experiment [22], no more than 125 µg/mL; in experiment [23], 80 µg/mL (≈ 98.4 µM). The MIC in experiment [24], in experiment [25] and in [26] was no more than 125 µg/mL in each case. Besides, the “Minimal Inhibitory Concentration (MIC)” value in [27] is “inact”.

The values above are taken from patent US20260041095A1, “A PRESERVATION METHOD” (AnalytiCon Discovery - Zweigniederlassung der BRAIN Biotech …, priority 2022, published 2026).
